Measurements from US7297700B2, “Bicycloheteroaryl compounds as P2X7 modulators and uses thereof” (Renovis, Inc., priority 2005, dated 2007).

System: IL-1β release from THP-1 cells
Test: IL-1β Release Assay (Alternate Method), THP-1 cells
Format: cell-based, human
Conditions: Homo sapiens; at 0.3 μM; THP-1 cells; read-out: IL-1β % inhibition
In short: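 THP-1 cells differentiated 16 h with 100 ng/mL LPS plus 100 ng/mL IFN-γ, reprimed 2 h with 100 ng/mL LPS, pretreated 30 min with compound, then challenged 45 min with 250 uM BzATP (final). Supernatant IL-1β quantified by ELISA; percent inhibition from background-adjusted levels versus untreated cells.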

SMILES	inhibition at 0.3 µM
O=C(NCC12CC3CC(CC(C3)C1)C2)c1ncnc2c1CCN(Cc1ccc(F)cc1F)C2 [Compound 137]	50 to 75%
O=C(NCC12CC3CC(CC(C3)C1)C2)c1ncnc2c1CCN(Cc1ccccc1)C2 [Compound 17, 7-Benzyl-N-adamantylmethyl-5,6,7,8-tetrahydropyrido[3,4-d]pyrimidine-4-carboxamide]	> 75%

Same assay, conditions: at 0.3 μM; THP-1 cells

SMILES	IL-1β % inhibition
O=C(CC12CC3CC(CC(C3)C1)C2)Nc1ncnc2c1CCN(S(=O)(=O)c1ccccc1F)C2 [Compound 166]	++ (compound exhibited 25-50% inhibition at 0.3 μM)
O=C(CC1CCCCCC1)Nc1ncnc2c1CCN(CCc1ccccc1)C2 [Compound 129]	+ (compound exhibited 0-25% inhibition at 0.3 μM)
CC12CC3CC(C)(C1)CC(CC(=O)Nc1ncnc4c1CCN(Cc1ccccc1F)C4)(C3)C2 [Compound 371]	+++ (compound exhibited 50-75% inhibition at 0.3 μM)
O=C(CC12CC3CC(CC(C3)C1)C2)Nc1ncnc2c1CCN(S(=O)(=O)Cc1ccc(Cl)cc1)C2 [Compound 189]	++++ (compound exhibited 75% or greater inhibition at 0.3 μM)
Cc1cccc(C(=O)N2CCc3c(ncnc3NC(=O)CC34CC5CC(CC(C5)C3)C4)C2)c1 [Compound 230]	++++ (compound exhibited 75% or greater inhibition at 0.3 μM)
Cc1ccccc1CN1CCc2c(ncnc2C(=O)NCC23CC4CC(CC(C4)C2)C3)C1 [Compound 336]	++++ (compound exhibited 75% or greater inhibition at 0.3 μM)
Cc1c(C(=O)N2CCc3c(ncnc3NC(=O)CC34CC5CC(CC(C5)C3)C4)C2)cnn1-c1ccccc1 [Compound 288]	+ (compound exhibited 0-25% inhibition at 0.3 μM)
N#Cc1ccc(C(=O)N2CCc3c(ncnc3NC(=O)CC34CC5CC(CC(C5)C3)C4)C2)cc1 [Compound 257]	+ (compound exhibited 0-25% inhibition at 0.3 μM)
O=C(c1ccc(Cl)cc1)N1CCc2c(ncnc2NC(=O)C23CC4CC(CC(C4)C2)C3)C1 [Compound 399]	+ (compound exhibited 0-25% inhibition at 0.3 μM)
Cc1cc(CN2CCc3c(ncnc3NC(=O)CC34CC5CC(CC(C5)C3)C4)C2)ccc1F [Compound 86]	++ (compound exhibited 25-50% inhibition at 0.3 μM)
CC(C)CC(=O)N1CCc2c(ncnc2NC(=O)CC23CC4CC(CC(C4)C2)C3)C1 [Compound 255]	++ (compound exhibited 25-50% inhibition at 0.3 μM)
CC12CC3CC(C)(C1)CC(CC(=O)Nc1ncnc4c1CCN(C(=O)c1cccc(C(F)(F)F)c1)C4)(C3)C2 [Compound 383]	+ (compound exhibited 0-25% inhibition at 0.3 μM)

Same assay, conditions: at 0.3 μM; THP-1 cells, BzATP-stimulated

SMILES	IL-1β % inhibition
O=C(c1ccccc1C(F)(F)F)N1CCc2c(ncnc2NC(=O)C23CC4CC(CC(C4)C2)C3)C1 [Compound 442]	++ (compound exhibited 25-50% inhibition at 0.3 μM)
O=C(Nc1ncnc2c1CCN(Cc1ccc(Cl)nc1)C2)C12CC3CC(CC(C3)C1)C2 [Compound 634]	+ (compound exhibited 0-25% inhibition at 0.3 μM)
O=C(c1cc(C(F)(F)F)ccc1Cl)N1CCc2c(ncnc2NC(=O)C23CC4CC(CC(C4)C2)C3)C1 [Compound 443]	++ (compound exhibited 25-50% inhibition at 0.3 μM)
Cc1nc(S(=O)(=O)N2CCc3c(ncnc3NC(=O)C34CC5CC(CC(C5)C3)C4)C2)cn1C [Compound 499]	+ (compound exhibited 0-25% inhibition at 0.3 μM)
COc1ccc(CN2CCc3c(ncnc3NC(=O)C34CC5CC(CC(C5)C3)C4)C2)cc1O [Compound 593]	+ (compound exhibited 0-25% inhibition at 0.3 μM)
O=C(Cc1ccc(Cl)cc1)N1CCc2c(ncnc2NC(=O)C23CC4CC(CC(C4)C2)C3)C1 [Compound 437]	+ (compound exhibited 0-25% inhibition at 0.3 μM)
O=C(c1cccc(C(F)(F)F)c1)N1CCc2c(ncnc2NC(=O)C23CC4CC(CC(C4)C2)C3)C1 [Compound 406]	++ (compound exhibited 25-50% inhibition at 0.3 μM)
COc1ccc(CN2CCc3c(ncnc3NC(=O)C34CC5CC(CC(C5)C3)C4)C2)cc1OCc1ccccc1 [Compound 592]	++++ (compound exhibited 75% or greater inhibition at 0.3 μM)
